Assay results from publication PMC4303209, “A novel phosphatidylinositol 3-kinase (PI3K) inhibitor directs a potent FOXO-dependent, p53-independent cell cycle arrest phenotype characterized by the differential induction of a subset of FOXO-regulated genes” (Breast Cancer Research : BCR, 2014).

Tested on: MCF-7 breast cancer cells
Test: Microarray gene expression analysis (Agilent whole human genome 4 x 44K; compound vs DMSO, LIMMA log2 fold change)
Format: cell-based
Conditions: cell cycle genes

SMILES: Cn1ncc2c(N3CCOCC3)nc(-c3cccc(O)c3)nc21 [ETP-45658]
- TUBB3 log2FC (Gene 10381): -0.638
- ANAPC10 log2FC (Gene 10393): 0.516
- NDRG1 log2FC (Gene 10397): 1.084
- GNB2L1 log2FC (Gene 10399): -0.052
- PRMT5 log2FC (Gene 10419): -0.043
- MAD2L2 log2FC (Gene 10459): -0.088
- TACC3 log2FC (Gene 10460): -0.430
- CREB3 log2FC (Gene 10488): -0.118
- MYBBP1A log2FC (Gene 10514): -0.538
- CIB1 log2FC (Gene 10519): -0.090
- SSSCA1 log2FC (Gene 10534): -0.330
- DCTN2 log2FC (Gene 10540): 0.043
- SMC2 log2FC (Gene 10592): 0.719
- ERN2 log2FC (Gene 10595): -0.829
- USP16 log2FC (Gene 10600): 0.971
- HEXIM1 log2FC (Gene 10614): -0.354
- SPAG5 log2FC (Gene 10615): 0.309
- STAMBP log2FC (Gene 10617): 0.425
- TXNIP log2FC (Gene 10628): 2.131
- PDPN log2FC (Gene 10630): -0.069
- RGS14 log2FC (Gene 10636): 0.556
- CTCF log2FC (Gene 10664): -0.082
- CGRRF1 log2FC (Gene 10668): 0.871
- CGREF1 log2FC (Gene 10669): -0.152
- USP39 log2FC (Gene 10713): 0.041
- NUDC log2FC (Gene 10726): -0.412
- PLK4 log2FC (Gene 10733): 0.611
- STAG3 log2FC (Gene 10734): 0.527
- STAG2 log2FC (Gene 10735): 1.297
- NES log2FC (Gene 10763): -0.458
- PLK2 log2FC (Gene 10769): -0.887
- NEK6 log2FC (Gene 10783): -0.620
- SDCCAG8 log2FC (Gene 10806): 0.654
- TUBGCP2 log2FC (Gene 10844): -0.131
- LILRB1 log2FC (Gene 10859): -0.164
- USP19 log2FC (Gene 10869): 0.174
- BLCAP log2FC (Gene 10904): -0.662
- TXNL4A log2FC (Gene 10907): -0.510
- SUGT1 log2FC (Gene 10910): 0.410
- GADD45G log2FC (Gene 10912): -0.067
- EHMT2 log2FC (Gene 10919): 0.089
- BTG3 log2FC (Gene 10950): -0.035
- MAPRE2 log2FC (Gene 10982): -0.284
- KIF2C log2FC (Gene 11004): 0.489
- TLK2 log2FC (Gene 11011): 0.607
- RAB35 log2FC (Gene 11021): -0.457
- TDRKH log2FC (Gene 11022): 0.089
- PIM2 log2FC (Gene 11040): -0.863
- UBE2C log2FC (Gene 11065): -0.393
- TRIOBP log2FC (Gene 11078): 0.398
- NUPL2 log2FC (Gene 11097): 0.144
- KATNA1 log2FC (Gene 11104): 0.716
- PRDM4 log2FC (Gene 11108): 0.462
- CIT log2FC (Gene 11113): 0.376
- ZWINT log2FC (Gene 11130): -0.088
- CDC37 log2FC (Gene 11140): -0.282
- LZTS1 log2FC (Gene 11178): -0.979
- WDR6 log2FC (Gene 11180): -0.468
- RASSF1 log2FC (Gene 11186): 1.482
- CEP250 log2FC (Gene 11190): -0.206
- PMF1 log2FC (Gene 11243): -0.207
- DCTN3 log2FC (Gene 11258): 0.235
- TUSC2 log2FC (Gene 11334): -0.766
- OIP5 log2FC (Gene 11339): 0.202
- MAPRE1 log2FC (Gene 22919): -0.363
- MAPRE3 log2FC (Gene 22924): 0.034
- TRIM32 log2FC (Gene 22954): -0.374
- TPX2 log2FC (Gene 22974): 0.049
- AZI1 log2FC (Gene 22994): 0.520
- CEP152 log2FC (Gene 22995): 0.685
- USP33 log2FC (Gene 23032): 1.045
- WAPAL log2FC (Gene 23063): 0.789
- TRIM35 log2FC (Gene 23087): 0.473
- CLASP2 log2FC (Gene 23122): 0.610
- POGZ log2FC (Gene 23126): 0.396
- PHF8 log2FC (Gene 23133): -0.483
- SMC5 log2FC (Gene 23137): -0.109
- FBXL7 log2FC (Gene 23194): -0.171
- PSME4 log2FC (Gene 23198): 0.174
- RRS1 log2FC (Gene 23212): -0.840
- NUP210 log2FC (Gene 23225): -0.548
- PLCB1 log2FC (Gene 23236): 1.212
- BOP1 log2FC (Gene 23246): -0.416
- NUP160 log2FC (Gene 23279): -0.451
- FBXW11 log2FC (Gene 23291): -0.357
- UBR2 log2FC (Gene 23304): 0.788
- USP22 log2FC (Gene 23326): 0.274
- CLASP1 log2FC (Gene 23332): -0.307
- PPP1R13B log2FC (Gene 23368): 0.098
- DICER1 log2FC (Gene 23405): -0.887
- SIRT1 log2FC (Gene 23411): 1.263
- ITGB3BP log2FC (Gene 23421): 0.773
- PES1 log2FC (Gene 23481): -0.445
- ZFYVE26 log2FC (Gene 23503): 0.361
- SCRIB log2FC (Gene 23513): -0.165
- CCNDBP1 log2FC (Gene 23582): 0.710
- CD2AP log2FC (Gene 23607): 0.637
- NUP62 log2FC (Gene 23636): -0.576
- RABGAP1 log2FC (Gene 23637): 0.485
- PPP1R15A log2FC (Gene 23645): 1.011
- POLA2 log2FC (Gene 23649): -0.863
- ZNF318 log2FC (Gene 24149): 0.346
- RAD54B log2FC (Gene 25788): 0.549
- NIPBL log2FC (Gene 25836): 0.842
- INTS7 log2FC (Gene 25896): 0.076
- AHCTF1 log2FC (Gene 25909): 0.469
- SIN3A log2FC (Gene 25942): 0.788
- SH2B1 log2FC (Gene 25970): -0.484
- EGFL6 log2FC (Gene 25975): 0.028
- SENP6 log2FC (Gene 26054): 0.596
- FBXO6 log2FC (Gene 26270): 0.322
- FBXO5 log2FC (Gene 26271): 0.498
- NUPR1 log2FC (Gene 26471): 0.023
- AATF log2FC (Gene 26574): -0.362
- CKAP2 log2FC (Gene 26586): 0.829
- HBP1 log2FC (Gene 26959): 3.023
- MLH3 log2FC (Gene 27030): 0.187
- MTBP log2FC (Gene 27085): 0.847
- TJP3 log2FC (Gene 27134): 0.162
- VPS4A log2FC (Gene 27183): -0.366
- PDCD4 log2FC (Gene 27250): 1.281
- APEX2 log2FC (Gene 27301): -0.875
- UBE2S log2FC (Gene 27338): -0.678
- EML4 log2FC (Gene 27436): -0.240
- PPP2R3B log2FC (Gene 28227): -0.106
- MCTS1 log2FC (Gene 28985): -0.243
- HIPK2 log2FC (Gene 28996): -0.166
- BRD7 log2FC (Gene 29117): 0.662
- RACGAP1 log2FC (Gene 29127): 0.627
- UHRF1 log2FC (Gene 29128): -0.406
- PSMC3IP log2FC (Gene 29893): 0.342
- GPSM2 log2FC (Gene 29899): 0.274
- SAC3D1 log2FC (Gene 29901): 0.069
- RPA4 log2FC (Gene 29935): -0.445
- ANAPC4 log2FC (Gene 29945): 0.654
- SERTAD1 log2FC (Gene 29950): -1.280
- CUZD1 log2FC (Gene 50624): 0.419
- PARD6A log2FC (Gene 50855): -0.204
- GMNN log2FC (Gene 51053): 0.163
- RPS27L log2FC (Gene 51065): 0.265
- MLXIPL log2FC (Gene 51085): 0.256
- SBDS log2FC (Gene 51119): 0.607
- DYNC1LI1 log2FC (Gene 51143): 0.709
- ING4 log2FC (Gene 51147): 1.465
- TUBE1 log2FC (Gene 51175): 0.231
- LEF1 log2FC (Gene 51176): -0.842
- HERC5 log2FC (Gene 51191): 0.711
- NUSAP1 log2FC (Gene 51203): 0.849
- DUSP13 log2FC (Gene 51207): -0.060
- WAC log2FC (Gene 51322): 0.945
- DACT1 log2FC (Gene 51339): 0.045
- FZR1 log2FC (Gene 51343): -0.538
- TAOK3 log2FC (Gene 51347): 1.243
- PRKAG2 log2FC (Gene 51422): -0.498
- SNX9 log2FC (Gene 51429): 0.822
- ANAPC7 log2FC (Gene 51434): -0.070
- LCMT1 log2FC (Gene 51451): -0.115
